According to patent US20260042764A1, “COMPOSITIONS AND METHODS FOR INHIBITION OF KRAS” (TheRas, Inc., priority 2022, published 2026):

What was measured:
[1] = tested on: H358 cells (KRAS G12C); test: Cell-based pERK HTRF assay in H358 cells (Biological Example 5)
Experimental: (§1) Biological Example 5: Cell-based PERK HTRF assay in AsPC-1, SW1900, HPAC, Capan-2, RKN, H358, HCT116, KP-2, H1573, A549, MKN1, and HT1080 cells
(§2) The inhibition of ERK phosphorylation, as measured using the HTRF Advanced Phospho-ERK 1/2 (Thr202/Tyr204) Detection Assay kit (Perkin Elmer), was used to determine the effectiveness of test compounds in disrupting KRAS-driven protein/effector signaling in cells.
(§3) On day 1, cells were seeded into 96-well plates at 2.5×10^4 cells/well in 100 μL of complete growth media supplemented with 10% fetal bovine serum (FBS) and incubated at 37° C., in the presence of 5% CO2.
(§4) On day 2, cells were treated with compounds diluted in DMSO at 0.25% final DMSO concentration. Compounds were dosed in a 9-point concentration curve with three-fold dilution between concentrations. Cells were incubated in the presence of compound for two hours at 37° C. Following this treatment period, cells were harvested by aspirating the media, adding 40 μL of kit-supplied 1x lysis buffer per well, and shaking for 30 minutes at 250 rpm at room temperature.
(§5) Following cell lysis, samples were homogenized by pipetting up and down twenty times and 16 μL of cell lysate per well was transferred from the 96-well cell culture plate to two wells of a 384-well detection plate. A complete detection buffer was prepared by diluting D2 and Eu Cryptate antibodies 1:20 in kit-provided detection solution, 4 μL of complete detection buffer was then added to each well with lysate. Plates were incubated with gentle rocking for 24 hours at 4° C.
(§6) Following this incubation period, plates were centrifuged at 500×g for one minute and analyzed on a CLARIOstar plate reader. Data was imported into Microsoft Excel and the signal from the 665 nm channel was divided by the signal from the 620 nm channel. % pERK was calculated as: […]
(§7) Data was imported to the Prism software package (Graphpad) and EC50 values were calculated using the log (inhibitor) vs, response—variable slopc (Four parameters) model.

[2] = tested on: HT1080 cells (NRAS); test: Cell-based pERK HTRF assay in HT1080 cells (Biological Example 5); conditions: Homo sapiens, HT-1080
Experimental: as §1, §2, §3, §4, §5, §6, §7

[3] = tested on: A549 cells (KRAS G12S); test: Cell-based pERK HTRF assay in A549 cells (Biological Example 5); conditions: Homo sapiens
Experimental: as §1, §2, §3, §4, §5, §6, §7

[4] = tested on: A549 cells (KRAS G12S); test: 3D Cell viability assay in A549 cells (Biological Example 6); format: cell-based; conditions: Homo sapiens; A549 (KRAS G12S) spheroids, 72 hours
Experimental: (§8) Biological Example 6: 3D Cell viability assay in AsPC-1, SW1900, HPAC, Capan-2, RKN, H358, HCT116, KP-2, H1573, A549, MKN1, and HT1080 cells
(§9) The inhibition of cellular viability as a result of test compound treatment in a spheroid assay was measured using the CellTiter-Glow 3D Cell Viability Assay (Promega).
(§10) On Day 1, 1000 cells per well were seeded in 150 μL of complete growth media supplemented with 10% fetal bovine serum (FBS) and incubated at 37° C., in the presence of 5% CO2 in 96-well ultra-low attachment microplates (Corning) for 48 hours undisturbed to allow spheroids to form.
(§11) Following spheroid formation, cells were treated with compounds diluted in DMSO at 0.25% final DMSO concentration. Compounds were dosed in a 9-point concentration curve with three-fold dilution between concentrations. Cells were incubated in the presence of compound for 72 hours at 37° C., in the presence of 5% CO2.
(§12) Following this incubation period, the kit-provided CTG reagent was allowed to equilibrate for 30 minutes at room temperature, 150 μL of equilibrated CTG reagent was added to each well, and the plate was sealed before shaking at 250 rpm for 10 minutes at room temperature to lyse the cells, 150 μL of lysate per well was transferred to a 96-well plate and luminescence was read on a CLARIOstar plate reader.
(§13) Data was imported into the Prism software package (Graphpad) and EC50 values were calculated using the log (inhibitor) vs, response—variable slope (Four parameters) model.

[5] = tested on: HPAC cells (KRAS G12D); test: 3D Cell viability assay in HPAC cells (Biological Example 6); format: cell-based; conditions: Homo sapiens, HPAC, 72 h, HPAC (KRAS G12D) spheroids
Outline: (§14)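 EC50 values come from a four-parameter variable-slope fit of CellTiter-Glo 3D luminescence in spheroid cultures treated 72 h with a nine-point, three-fold dilution series.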

[6] = tested on: H1573 cells (KRAS G12A); test: 3D Cell viability assay in H1573 cells (Biological Example 6); format: cell-based; conditions: Homo sapiens, NCI-H1573; H1573 (KRAS G12A) spheroids, 72 hours
Experimental: as §8, §9, §10, §11, §12, §13

[7] = tested on: HT1080 cells (NRAS); test: 3D Cell viability assay in HT1080 cells (Biological Example 6); format: cell-based; conditions: Homo sapiens, HT-1080; HT1080 (NRAS) spheroids, 72 hours
Outline: as §14

[8] = tested on: KP-2 cells (KRAS G12R); test: Cell-based pERK HTRF assay in KP-2 cells (Biological Example 5); conditions: KP-2 (KRAS G12R) cells
Experimental: as §1, §2, §3, §4, §5, §6, §7

[9] = tested on: HPAC cells (KRAS G12D); test: Cell-based pERK HTRF assay in HPAC cells (Biological Example 5)
Experimental: as §1, §2, §3, §4, §5, §6, §7

[10] = tested on: Capan-2 cells (KRAS G12V); test: 3D Cell viability assay in Capan-2 cells (Biological Example 6); format: cell-based; conditions: Homo sapiens; Capan-2 (KRAS G12V) spheroids, 72 hours
Experimental: as §8, §9, §10, §11, §12, §13

[11] = tested on: H1573 cells (KRAS G12A); test: Cell-based pERK HTRF assay in H1573 cells (Biological Example 5); conditions: Homo sapiens, NCI-H1573
Experimental: as §1, §2, §3, §4, §5, §6, §7

[12] = tested on: HCT116 cells (KRAS G13D); test: Cell-based pERK HTRF assay in HCT116 cells (Biological Example 5); conditions: Homo sapiens, HCT-116
Experimental: as §1, §2, §3, §4, §5, §6, §7

[13] = tested on: RKN cells (KRAS G12V); test: 3D Cell viability assay in RKN cells (Biological Example 6); format: cell-based; conditions: RKN (KRAS G12V) spheroids, 72 hours
Experimental: as §8, §9, §10, §11, §12, §13

[14] = tested on: RKN cells (KRAS G12V); test: Cell-based pERK HTRF assay in RKN cells (Biological Example 5)
Experimental: as §1, §2, §3, §4, §5, §6, §7

[15] = tested on: SW1900 cells (KRAS G12D); test: 3D Cell viability assay in SW1900 cells (Biological Example 6); format: cell-based; conditions: Homo sapiens; SW1990 (text: SW1900, KRAS G12D) spheroids, 72 hours
Outline: as §14

[16] = tested on: KP-2 cells (KRAS G12R); test: 3D Cell viability assay in KP-2 cells (Biological Example 6); format: cell-based; conditions: KP-2 (KRAS G12R) spheroids, 72 hours
Experimental: as §8, §9, §10, §11, §12, §13

[17] = tested on: AsPC-1 cells (KRAS G12D); test: Cell-based pERK HTRF assay in AsPC-1 cells (Biological Example 5)
Experimental: as §1, §2, §3, §4, §5, §6, §7

[18] = Homo sapiens, NCI-H358, H358 (KRAS G12C) cells
[19] = Homo sapiens, ASPC1, AsPC-1 (KRAS G12D) cells

Compound	IC50 [1, 18] [nM]	IC50 [2] [nM]	IC50 [3] [nM]	IC50 [4] [nM]	IC50 [5] [nM]	IC50 [6] [nM]	IC50 [7] [nM]	IC50 [8] [nM]	IC50 ([9]; Homo sapiens, HPAC) [nM]	IC50 [10] [nM]	IC50 [11] [nM]	IC50 [12] [nM]	IC50 [13] [nM]	IC50 [14] [nM]	IC50 [15] [nM]	IC50 [16] [nM]	IC50 [17, 19] [nM]	IC50 ([1]; H358 (KRAS G12C) cells) [nM]	IC50 [9] [nM]	IC50 ([17]; AsPC-1 (KRAS G12D) cells) [nM]
CC(=O)N1CC[C@@H](N(C)c2nc(OC[C@@]34CCCN3C[C@H](F)C4)nc3c(F)c(-c4ccc(F)c5sc(N)c(C#N)c45)c(C(F)(F)F)cc23)[C@H]1C (single isomer, unassigned) [Compound 193]	≤ 100	> 1000	≤ 100	≤ 100	100 to 1000	≤ 100	> 1000	≤ 100	≤ 100	≤ 100	≤ 100	≤ 100								
N#Cc1c(N)sc2c(F)ccc(-c3c(C(F)(F)F)cc4c(N5CC6CC(C5)O6)nc(OC[C@@]56CCCN5C[C@H](F)C6)nc4c3F)c12 (single isomer, unassigned) [Compound 275]	≤ 100	> 1000	≤ 100	≤ 100	> 1000	≤ 100	> 1000	100 to 1000	100 to 1000	≤ 100	≤ 100	≤ 100	≤ 100	≤ 100	≤ 100	≤ 100	100 to 1000			
CCN(c1nc(OC[C@@]23CCCN2C[C@H](F)C3)nc2c(F)c(-c3ccc(F)c4sc(N)c(C#N)c34)c(C(F)(F)F)cc12)[C@H]1CCN(C(C)=O)C1 [Compound 262]	≤ 100	> 1000	≤ 100	≤ 100	≤ 100	≤ 100	> 1000	≤ 100	≤ 100	≤ 100	≤ 100	≤ 100	≤ 100	≤ 100	≤ 100	100 to 1000	100 to 1000			
CCN(c1nc(OC[C@@]23CCCN2C[C@H](F)C3)nc2c(F)c(-c3ccc(F)c4sc(N)c(C#N)c34)c(C(F)(F)F)cc12)[C@@H]1CCN(C(C)=O)C1 [Compound 268]	≤ 100	> 1000	≤ 100	≤ 100	≤ 100	≤ 100	> 1000	100 to 1000	≤ 100	≤ 100	≤ 100	≤ 100	≤ 100	≤ 100	≤ 100	100 to 1000	100 to 1000			
CCN(c1nc(OC[C@@]23CCCN2C[C@H](F)C3)nc2c(F)c(-c3ccc(F)c4sc(N)c(C#N)c34)c(C(F)(F)F)cc12)[C@H]1CCN(C(=O)C(C)C)C1 [Compound 332]		> 1000	≤ 100	≤ 100	100 to 1000	≤ 100	> 1000	≤ 100		≤ 100	≤ 100	≤ 100	≤ 100	≤ 100	≤ 100	≤ 100		≤ 100	≤ 100	≤ 100
N#Cc1cnn2c1CN(c1nc(OC[C@@]34CCCN3C[C@H](F)C4)nc3c(F)c(-c4ccc(F)c5sc(N)c(C#N)c45)c(C(F)(F)F)cc13)CC2 [Compound 392]	≤ 100	> 1000	100 to 1000	100 to 1000	100 to 1000	100 to 1000	> 1000	100 to 1000	≤ 100	100 to 1000	100 to 1000	≤ 100	≤ 100	≤ 100	≤ 100	100 to 1000	> 1000			
C[C@@H]1[C@H](N(C)c2nc(OC[C@@]34CCCN3C[C@H](F)C4)nc3c(F)c(-c4ccc(F)c5sc(N)c(C#N)c45)c(C(F)(F)F)cc23)CC(=O)N1C [Compound 440]	100 to 1000	> 1000	100 to 1000	100 to 1000	100 to 1000	> 1000	> 1000	100 to 1000	≤ 100	100 to 1000	100 to 1000	≤ 100	≤ 100	100 to 1000	≤ 100	≤ 100	> 1000			
CCC(=O)N1C[C@@H](N(CC)c2nc(OC[C@@]34CCCN3C[C@H](F)C4)nc3c(F)c(-c4ccc(F)c5sc(N)c(C#N)c45)c(C(F)(F)F)cc23)C[C@H]1C [Compound 442]	≤ 100	> 1000	100 to 1000	100 to 1000	100 to 1000	100 to 1000	> 1000	100 to 1000	≤ 100	≤ 100	100 to 1000	≤ 100	≤ 100	≤ 100	≤ 100	100 to 1000	100 to 1000			
